{"source": "patent US11304918B2", "about": "“Methods and compositions for the treatment of diverticulosis” (Emmaus Medical, Inc., priority 2011, dated 2022)", "tested_on": "diverticula", "assay": "Number of diverticula observed by colonoscopy in a person with diverticulosis ingesting L-glutamine", "format": "in vivo", "details": "one person, 30 g of L-glutamine per day as an aqueous solution, ingested, after twelve months", "from_the_text": "Compositions according to the present invention may be used to treat diverticulosis as determined by a number of different methods to image colon pouches. Nonlimiting examples of imaging methods include: colonoscopy; computed tomography; and, x-ray based on a barium enema. […] The person ingested 30 g of L-glutamine per day as an aqueous solution. After twelve months of L-glutamine administration, the number of diverticula had been reduced by ninety (90) percent.", "data": [{"smiles": "NC(=O)CC[C@H](N)C(=O)O", "note": "[L-glutamine]", "values": [{"measurement": "reduction of the number of diverticula", "value": 90, "unit": "%"}]}]}
